Results as given in ChEMBL document CHEMBL1133244, “Solid-phase synthesis of an arylsulfone hydroxamate library” (Bioorg Med Chem Lett, 2000).
Blank lines part the entries; values can stand above or below the molecule they belong to. Activity calls are given as the source filed them. The rule behind the calls is not given here.

What was measured:
[1] = target: T1, Interstitial collagenase (Homo sapiens, UniProt P03956); experiment: Inhibitory activity against recombinant matrix metalloprotease-1
T1 sequence (P03956 whole entry): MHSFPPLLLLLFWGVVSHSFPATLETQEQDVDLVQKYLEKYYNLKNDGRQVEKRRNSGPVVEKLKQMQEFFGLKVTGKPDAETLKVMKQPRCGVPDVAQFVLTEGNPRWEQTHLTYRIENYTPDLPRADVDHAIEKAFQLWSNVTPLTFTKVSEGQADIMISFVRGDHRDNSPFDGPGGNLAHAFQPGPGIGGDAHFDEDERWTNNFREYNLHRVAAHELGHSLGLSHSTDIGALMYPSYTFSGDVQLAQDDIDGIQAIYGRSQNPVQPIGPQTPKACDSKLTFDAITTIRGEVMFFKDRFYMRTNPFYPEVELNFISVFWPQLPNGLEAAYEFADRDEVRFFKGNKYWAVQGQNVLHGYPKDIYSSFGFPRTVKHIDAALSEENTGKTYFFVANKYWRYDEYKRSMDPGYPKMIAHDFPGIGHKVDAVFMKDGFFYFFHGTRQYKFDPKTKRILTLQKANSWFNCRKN

[2] = target: Phosphodiesterase 4 (Cavia porcellus); experiment: Phosphodiesterase 4 inhibitory activity measured against guinea pig macrophage homogenate
[3] = target: T2, Stromelysin-1 (Homo sapiens, UniProt P08254); experiment: Inhibitory activity against recombinant matrix metalloprotease-3
[4] = target: T3, 72 kDa type IV collagenase (Homo sapiens, UniProt P08253); experiment: Inhibitory activity against recombinant matrix metalloprotease-2
[5] = target: T3, 72 kDa type IV collagenase
Description: In vitro inhibition of human recombinant Matrix metalloprotease-2.

[6] = target: T1, Interstitial collagenase; experiment: In vitro inhibition of human recombinant Matrix metalloprotease-1.
[7] = In vitro for the inhibition of TNF alpha release by human peripheral blood monocytes (PBMs); type: functional
[8] = target: T2, Stromelysin-1; experiment: In vitro inhibition of human recombinant Matrix metalloprotease-3.
[9] = target: Disintegrin and metalloproteinase domain-containing protein 17 (Homo sapiens) (UniProt P78536); experiment: Inhibitory activity against TACE
Sequence of Disintegrin and metalloproteinase domain-containing protein 17 (Homo sapiens) (P78536 whole entry, the tested form may be a part): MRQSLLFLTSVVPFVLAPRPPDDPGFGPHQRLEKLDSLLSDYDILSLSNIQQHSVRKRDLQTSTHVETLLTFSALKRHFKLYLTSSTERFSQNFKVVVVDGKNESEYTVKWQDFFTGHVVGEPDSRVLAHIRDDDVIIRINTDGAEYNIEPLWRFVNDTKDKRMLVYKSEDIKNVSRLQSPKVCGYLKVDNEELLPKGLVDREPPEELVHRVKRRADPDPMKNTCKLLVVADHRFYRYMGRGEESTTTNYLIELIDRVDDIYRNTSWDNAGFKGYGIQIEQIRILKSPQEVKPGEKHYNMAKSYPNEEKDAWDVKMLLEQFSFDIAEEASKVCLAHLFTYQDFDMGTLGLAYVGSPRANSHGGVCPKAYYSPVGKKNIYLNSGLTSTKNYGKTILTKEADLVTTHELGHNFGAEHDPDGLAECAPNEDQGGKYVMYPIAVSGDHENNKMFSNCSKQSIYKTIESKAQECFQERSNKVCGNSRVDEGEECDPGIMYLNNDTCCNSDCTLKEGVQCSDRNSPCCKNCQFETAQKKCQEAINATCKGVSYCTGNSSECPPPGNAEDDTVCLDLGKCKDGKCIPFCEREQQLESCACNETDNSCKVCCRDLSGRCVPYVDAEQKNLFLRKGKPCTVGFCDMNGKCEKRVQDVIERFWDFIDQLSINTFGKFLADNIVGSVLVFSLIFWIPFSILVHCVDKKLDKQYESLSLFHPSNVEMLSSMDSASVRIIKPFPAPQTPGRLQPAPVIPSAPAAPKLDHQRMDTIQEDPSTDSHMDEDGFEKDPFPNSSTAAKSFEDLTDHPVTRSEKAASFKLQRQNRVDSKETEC

T3 sequence (P08253 whole entry): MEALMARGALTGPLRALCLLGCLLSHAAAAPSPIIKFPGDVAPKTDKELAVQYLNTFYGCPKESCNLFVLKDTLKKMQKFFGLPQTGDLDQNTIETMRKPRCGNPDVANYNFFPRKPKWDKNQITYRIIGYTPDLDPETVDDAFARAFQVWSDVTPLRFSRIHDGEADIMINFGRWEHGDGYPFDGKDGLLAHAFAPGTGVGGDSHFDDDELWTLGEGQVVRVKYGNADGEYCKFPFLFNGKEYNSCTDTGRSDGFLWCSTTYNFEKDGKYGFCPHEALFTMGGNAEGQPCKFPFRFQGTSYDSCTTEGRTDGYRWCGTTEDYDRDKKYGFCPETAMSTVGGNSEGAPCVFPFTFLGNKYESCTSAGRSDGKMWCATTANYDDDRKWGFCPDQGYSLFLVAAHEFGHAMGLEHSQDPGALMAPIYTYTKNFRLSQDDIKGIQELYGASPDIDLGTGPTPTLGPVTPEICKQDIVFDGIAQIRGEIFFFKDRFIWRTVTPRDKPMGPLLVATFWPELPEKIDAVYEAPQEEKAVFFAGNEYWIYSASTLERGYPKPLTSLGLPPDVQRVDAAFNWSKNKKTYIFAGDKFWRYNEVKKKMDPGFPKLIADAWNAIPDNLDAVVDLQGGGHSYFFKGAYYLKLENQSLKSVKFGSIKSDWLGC
T2 sequence (P08254 whole entry): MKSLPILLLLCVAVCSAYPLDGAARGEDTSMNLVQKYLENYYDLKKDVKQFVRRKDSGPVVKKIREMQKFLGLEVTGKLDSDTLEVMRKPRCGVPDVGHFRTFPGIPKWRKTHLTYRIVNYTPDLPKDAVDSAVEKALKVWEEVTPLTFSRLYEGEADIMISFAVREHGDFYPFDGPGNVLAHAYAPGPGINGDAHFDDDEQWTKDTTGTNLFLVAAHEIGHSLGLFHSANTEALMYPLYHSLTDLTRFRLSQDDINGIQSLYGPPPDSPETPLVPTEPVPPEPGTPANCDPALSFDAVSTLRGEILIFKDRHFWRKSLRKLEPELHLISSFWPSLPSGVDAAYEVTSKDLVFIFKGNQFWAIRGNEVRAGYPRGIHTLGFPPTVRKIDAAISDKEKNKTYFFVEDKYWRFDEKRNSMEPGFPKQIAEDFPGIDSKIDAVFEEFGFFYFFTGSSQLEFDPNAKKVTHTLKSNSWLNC

Structure (SMILES): COc1ccc(S(=O)(=O)C(CCC(=O)N2CCCc3ccccc32)CC(=O)NO)cc1OC1CCCC1 (configuration not stated)
- IC50 [1]: > 10 µM
- IC50 [2]: 0.016 µM
- IC50 [3]: > 10 µM
- IC50 [4]: > 10 µM

Structure (SMILES): COc1ccc(S(=O)(=O)C(CCCc2ccccc2)CC(=O)NO)cc1 (configuration not stated)
- Ki [5]: 0.044 µM
- Ki [6]: 2.58 µM
- IC50 [7]: 5 µM
- Ki [8]: 1.39 µM
- Activity [9]: inactive

Structure (SMILES): COc1ccc(S(=O)(=O)C(CCCC(=O)N2CCCc3ccccc32)CC(=O)NO)cc1OC (configuration not stated)
- IC50 [1]: > 10 µM
- IC50 [2]: 0.295 µM
- IC50 [3]: > 10 µM
- IC50 [4]: > 10 µM

Structure (SMILES): COc1ccc(S(=O)(=O)C(CC(=O)NO)C(C)c2ccccc2)cc1 (configuration not stated)
- Ki [5]: 0.008 µM
- Ki [6]: 1.71 µM
- IC50 [7]: > 10 µM
- Ki [8]: 0.3 µM
- Activity [9]: inactive

Structure (SMILES): CCCCC(CC)C(CC(=O)NO)S(=O)(=O)c1ccc(OC)cc1 (configuration not stated)
- Ki [5]: 0.004 µM
- Ki [6]: 0.357 µM
- IC50 [7]: > 10 µM
- Ki [8]: 0.184 µM
- Activity [9]: inactive

Structure (SMILES): COc1ccc(S(=O)(=O)C(CCc2ccccc2)CC(=O)NO)cc1OC (configuration not stated)
- IC50 [1]: > 10 µM
- IC50 [2]: 3.03 µM
- IC50 [3]: > 10 µM
- IC50 [4]: > 10 µM

Structure (SMILES): COc1ccc(S(=O)(=O)C(CC(=O)NO)c2ccccc2)cc1 (configuration not stated)
- Ki [6]: > 10 µM
- IC50 [7]: > 10 µM
- Ki [8]: 3.3 µM
- Activity [9]: inactive

Structure (SMILES): COc1ccc(S(=O)(=O)C(CC(=O)NO)C2CCCCC2)cc1 (configuration not stated)
- Ki [5]: 0.008 µM
- Ki [6]: 1.71 µM
- IC50 [7]: > 10 µM
- Ki [8]: 0.086 µM
- Activity [9]: inactive

Structure (SMILES): CCCCCCC(CC(=O)NO)S(=O)(=O)c1ccc(OC)cc1 (configuration not stated)
- Ki [5]: 0.031 µM
- Ki [6]: 9.59 µM
- IC50 [7]: 1.4 µM
- Ki [8]: 0.734 µM
- Activity [9]: inactive

Structure (SMILES): COc1ccc(S(=O)(=O)C(CC(=O)NO)c2ccc(OC(C)C)cc2)cc1 (configuration not stated)
- Ki [5]: > 10 µM
- Ki [6]: > 10 µM
- IC50 [7]: > 10 µM
- Ki [8]: > 10 µM
- Activity [9]: inactive

Structure (SMILES): COc1ccc(S(=O)(=O)C(CCCC(=O)N2CCCc3ccccc32)CC(=O)NO)cc1OC1CCCC1 (configuration not stated)
- IC50 [1]: > 10 µM
- IC50 [2]: 0.036 µM
- IC50 [3]: > 10 µM
- IC50 [4]: > 10 µM

Structure (SMILES): COc1ccc(S(=O)(=O)C(CCCCc2ccccc2)CC(=O)NO)cc1 (configuration not stated)
- IC50 [7]: > 10 µM
- Activity [9]: inactive

Structure (SMILES): COc1ccc(S(=O)(=O)C(CC(=O)NO)c2ccccc2)cc1OC (configuration not stated)
- IC50 [7]: 0.45 µM
- IC50 [1]: > 10 µM
- IC50 [2]: 0.58 µM
- IC50 [3]: > 10 µM
- IC50 [4]: > 10 µM
- Activity [9]: inactive

Structure (SMILES): COc1ccc(S(=O)(=O)C(CCC(=O)N2CCCc3ccccc32)CC(=O)NO)cc1OC (configuration not stated)
- IC50 [1]: > 10 µM
- IC50 [2]: 0.564 µM
- IC50 [3]: > 10 µM
- IC50 [4]: > 10 µM

Structure (SMILES): CCCC(CC(=O)NO)S(=O)(=O)c1ccc(OC)c(OC2CCCC2)c1 (configuration not stated)
- IC50 [1]: > 10 µM
- IC50 [2]: 0.055 µM
- IC50 [3]: > 10 µM
- IC50 [4]: > 10 µM

Structure (SMILES): COc1ccc(S(=O)(=O)C(CC(=O)NO)CC(C)C)cc1OC1CCCC1 (configuration not stated)
- IC50 [1]: > 10 µM
- IC50 [2]: 0.102 µM
- IC50 [3]: > 10 µM
- IC50 [4]: > 10 µM

Structure (SMILES): CCCC(CC(=O)NO)S(=O)(=O)c1ccc(OC)c(OC)c1 (configuration not stated)
- IC50 [1]: > 10 µM
- IC50 [2]: 5.25 µM
- IC50 [3]: > 10 µM
- IC50 [4]: > 10 µM

Structure (SMILES): CCCCCCC(CC(=O)NO)S(=O)(=O)c1ccc(OC)c(OC2CCCC2)c1 (configuration not stated)
- IC50 [1]: > 10 µM
- IC50 [2]: 0.0095 µM
- IC50 [3]: > 10 µM
- IC50 [4]: > 10 µM

Structure (SMILES): COc1ccc(S(=O)(=O)C(CC(=O)NO)CC(C)C)cc1OC (configuration not stated)
- IC50 [1]: > 10 µM
- IC50 [2]: > 10 µM
- IC50 [3]: > 10 µM
- IC50 [4]: > 10 µM

Structure (SMILES): COc1ccc(S(=O)(=O)C(CCCc2ccccc2)CC(=O)NO)cc1OC (configuration not stated)
- IC50 [7]: 0.009 µM
- IC50 [1]: > 10 µM
- IC50 [2]: 0.014 µM
- IC50 [3]: > 10 µM
- IC50 [4]: > 10 µM
- Activity [9]: inactive

Structure (SMILES): COc1ccc(C(=O)Nc2c(Cl)cncc2Cl)cc1OC1CCCC1
- IC50 [7]: 0.005 µM

Structure (SMILES): COc1ccc(S(=O)(=O)C(CCCCc2ccc3c(c2)OCO3)CC(=O)NO)cc1OC (configuration not stated)
- IC50 [1]: > 10 µM
- IC50 [2]: 0.0064 µM
- IC50 [3]: > 10 µM
- IC50 [4]: > 10 µM

Continued, values first:

- IC50 [1]: > 10 µM
- IC50 [2]: 0.021 µM
- IC50 [3]: > 10 µM
- IC50 [4]: > 10 µM
Structure (SMILES): COc1ccc(S(=O)(=O)C(CC(=O)NO)c2ccc(OCc3ccccc3)cc2)cc1OC1CCCC1 (configuration not stated)

- IC50 [1]: > 10 µM
- IC50 [2]: 0.032 µM
- IC50 [3]: > 10 µM
- IC50 [4]: > 10 µM
Structure (SMILES): COc1ccc(S(=O)(=O)C(CCCN2C(=O)c3ccccc3C2=O)CC(=O)NO)cc1OC1CCCC1 (configuration not stated)

- IC50 [1]: > 10 µM
- IC50 [2]: 0.26 µM
- IC50 [3]: > 10 µM
- IC50 [4]: > 10 µM
Structure (SMILES): COc1ccc(S(=O)(=O)C(CC(=O)NO)c2cccc(Oc3ccccc3)c2)cc1OC1CCCC1 (configuration not stated)

- IC50 [1]: > 10 µM
- IC50 [2]: 0.031 µM
- IC50 [3]: > 10 µM
- IC50 [4]: > 10 µM
Structure (SMILES): COc1ccc(S(=O)(=O)C(CCc2ccccc2)CC(=O)NO)cc1OC1CCCC1 (configuration not stated)

- IC50 [1]: > 10 µM
- IC50 [2]: 0.118 µM
- IC50 [3]: > 10 µM
- IC50 [4]: > 10 µM
Structure (SMILES): COc1ccc(S(=O)(=O)C(CCCC(=O)N(C)c2ccccc2)CC(=O)NO)cc1OC1CCCC1 (configuration not stated)

- IC50 [1]: > 10 µM
- IC50 [2]: 0.032 µM
- IC50 [3]: > 10 µM
- IC50 [4]: > 10 µM
Structure (SMILES): COc1ccc(S(=O)(=O)C(CCc2ccc(Oc3ccccc3)cc2)CC(=O)NO)cc1OC1CCCC1 (configuration not stated)

- IC50 [1]: > 10 µM
- IC50 [2]: 0.46 µM
- IC50 [3]: > 10 µM
- IC50 [4]: > 10 µM
Structure (SMILES): COc1ccc(S(=O)(=O)C(CCN(C)C(=O)OCc2ccccc2)CC(=O)NO)cc1OC1CCCC1 (configuration not stated)

- IC50 [1]: > 10 µM
- IC50 [2]: 0.05 µM
- IC50 [3]: > 10 µM
- IC50 [4]: > 10 µM
Structure (SMILES): COc1ccc(S(=O)(=O)C(CCC(=O)N(C)c2ccccc2)CC(=O)NO)cc1OC1CCCC1 (configuration not stated)

- IC50 [1]: > 10 µM
- IC50 [2]: 0.974 µM
- IC50 [3]: > 10 µM
- IC50 [4]: > 10 µM
Structure (SMILES): COc1ccc(S(=O)(=O)C(CC(=O)NO)CN(C)C(=O)c2ccccc2)cc1OC1CCCC1 (configuration not stated)

- IC50 [1]: > 10 µM
- IC50 [2]: 0.063 µM
- IC50 [3]: > 10 µM
- IC50 [4]: > 10 µM
Structure (SMILES): COc1ccc(S(=O)(=O)C(CCc2ccc(OCc3ccccc3)cc2)CC(=O)NO)cc1OC1CCCC1 (configuration not stated)

- IC50 [1]: > 10 µM
- IC50 [2]: 1.04 µM
- IC50 [3]: > 10 µM
- IC50 [4]: > 10 µM
Structure (SMILES): COc1ccc(S(=O)(=O)C(CCN(C)C(=O)c2ccccc2)CC(=O)NO)cc1OC1CCCC1 (configuration not stated)

- IC50 [1]: > 10 µM
- IC50 [2]: 0.049 µM
- IC50 [3]: > 10 µM
- IC50 [4]: > 10 µM
Structure (SMILES): COc1ccc(Oc2cccc(C(CC(=O)NO)S(=O)(=O)c3ccc(OC)c(OC4CCCC4)c3)c2)cc1 (configuration not stated)

- IC50 [1]: > 10 µM
- IC50 [2]: 0.14 µM
- IC50 [3]: > 10 µM
- IC50 [4]: > 10 µM
Structure (SMILES): COc1ccc(S(=O)(=O)C(CCOC(=O)N(C)c2ccccc2)CC(=O)NO)cc1OC1CCCC1 (configuration not stated)

- IC50 [1]: > 10 µM
- IC50 [2]: 0.064 µM
- IC50 [3]: > 10 µM
- IC50 [4]: > 10 µM
Structure (SMILES): COc1ccc(S(=O)(=O)C(CCc2ccc(OCc3ccccc3)cc2)CC(=O)NO)cc1OC (configuration not stated)

- IC50 [1]: > 10 µM
- IC50 [2]: 1.5 µM
- IC50 [3]: > 10 µM
- IC50 [4]: > 10 µM
Structure (SMILES): COc1ccc(S(=O)(=O)C(CC(=O)NO)c2ccccc2OCc2ccccc2)cc1OC1CCCC1 (configuration not stated)

- IC50 [1]: > 10 µM
- IC50 [2]: 0.089 µM
- IC50 [3]: > 10 µM
- IC50 [4]: > 10 µM
Structure (SMILES): COc1ccc(S(=O)(=O)C(CC(=O)NO)c2cccc(OCc3ccccc3)c2)cc1OC1CCCC1 (configuration not stated)
